Patent publication US20210255193A1, “LYSINE REACTIVE PROBES AND USES THEREOF” (The Scripps Research Institute, priority 2017, published 2021)
Each block holds one compound with its values, some of them ahead of it.

Tests used:
Test in all cases: competitive isoTOP-ABPP
Type in all cases: binding
[1] = target: T1, PNPO Pyridoxine-5-phosphate oxidase (Homo sapiens, UniProt Q9NVS9); conditions: for isoTOP-ABPP ratio, lysine Q9NVS9_K100: 50 uM_231_sol_in vitro; for R value (DMSO/fragment) for probe 1 labeling: Q9NVS9_K100; for R value (DMSO/fragment) for probe 1 labeling / isoTOP-ABPP ratio (R) at liganded lysine Q9NVS9_K100 / isoTOP-ABPP reactivity ratio at lysine Q9NVS9_K100: 50 uM, in vitro; for R value (DMSO/fragment) for probe 1 labeling / isoTOP-ABPP reactivity ratio at lysine Q9NVS9_K100: 231 sol; for isoTOP-ABPP ratio (R) at liganded lysine Q9NVS9_K100: sol, 231
T1 construct: endogenous in cells; host or cells: MDA-MB-231 (soluble fraction of lysate)
T1 sequence (Q9NVS9 1-261): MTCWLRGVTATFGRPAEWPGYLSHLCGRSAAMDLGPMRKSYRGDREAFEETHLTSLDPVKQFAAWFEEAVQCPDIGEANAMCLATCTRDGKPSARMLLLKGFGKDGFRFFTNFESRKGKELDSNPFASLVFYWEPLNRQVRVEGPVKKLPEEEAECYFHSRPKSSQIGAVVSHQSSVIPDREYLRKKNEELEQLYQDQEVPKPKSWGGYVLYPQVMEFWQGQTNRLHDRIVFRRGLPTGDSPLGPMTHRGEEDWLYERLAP
Summary of the method: (§1)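 Lysate + fragment (50 μM activated ester / 100 μM guanidinylating agent) or DMSO → 0.1 mM STP-alkyne, 1 h, RT → CuAAC to TEV tags (compound light, DMSO heavy) → LC-MS. R = heavy/light MS1 area; liganded lysine if R≥4.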

[2] = target: T2, GBAS Protein NipSnap homolog 2 (Homo sapiens, UniProt O75323); conditions: for isoTOP-ABPP ratio, lysine O75323_K75: 50 uM_231_sol_in vitro; for R value (DMSO/fragment) for probe 1 labeling: O75323_K75; for R value (DMSO/fragment) for probe 1 labeling / isoTOP-ABPP ratio (R) at liganded lysine O75323_K75 / isoTOP-ABPP reactivity ratio at lysine O75323_K75: 50 uM, in vitro; for R value (DMSO/fragment) for probe 1 labeling / isoTOP-ABPP reactivity ratio at lysine O75323_K75: 231 sol; for isoTOP-ABPP ratio (R) at liganded lysine O75323_K75: sol, 231
T2 construct: isoTOP-ABPP experiments performed in cell lysates (in vitro); endogenous in cells; host or cells: MDA-MB-231 soluble lysate
T2 sequence (O75323 24-286): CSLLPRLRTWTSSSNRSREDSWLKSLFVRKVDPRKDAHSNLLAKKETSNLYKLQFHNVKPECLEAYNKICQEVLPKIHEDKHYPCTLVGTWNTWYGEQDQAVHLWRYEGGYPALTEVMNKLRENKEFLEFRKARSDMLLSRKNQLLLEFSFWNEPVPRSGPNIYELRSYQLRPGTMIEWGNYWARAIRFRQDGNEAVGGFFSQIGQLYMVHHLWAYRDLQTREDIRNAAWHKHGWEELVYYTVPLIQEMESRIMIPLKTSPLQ
Summary of the method: as §1

FAH Fumarylacetoacetase = target: T3, FAH Fumarylacetoacetase (Homo sapiens, UniProt P16930); conditions: for isoTOP-ABPP ratio, lysine P16930_K241: 50 uM_231_sol_in vitro; for R value (DMSO/fragment) for probe 1 labeling: P16930_K241; for R value (DMSO/fragment) for probe 1 labeling / isoTOP-ABPP ratio (R) at liganded lysine P16930_K241 / isoTOP-ABPP reactivity ratio at lysine P16930_K241: 50 uM, in vitro; for R value (DMSO/fragment) for probe 1 labeling / isoTOP-ABPP reactivity ratio at lysine P16930_K241: 231 sol; for isoTOP-ABPP ratio (R) at liganded lysine P16930_K241: sol, 231
T3 construct: isoTOP-ABPP experiments performed in cell lysates (in vitro); endogenous in cells; host or cells: soluble proteome of human cancer cell lines (MDA-MB-231; Ramos and Jurkat also prepared)
T3 sequence (P16930 1-419): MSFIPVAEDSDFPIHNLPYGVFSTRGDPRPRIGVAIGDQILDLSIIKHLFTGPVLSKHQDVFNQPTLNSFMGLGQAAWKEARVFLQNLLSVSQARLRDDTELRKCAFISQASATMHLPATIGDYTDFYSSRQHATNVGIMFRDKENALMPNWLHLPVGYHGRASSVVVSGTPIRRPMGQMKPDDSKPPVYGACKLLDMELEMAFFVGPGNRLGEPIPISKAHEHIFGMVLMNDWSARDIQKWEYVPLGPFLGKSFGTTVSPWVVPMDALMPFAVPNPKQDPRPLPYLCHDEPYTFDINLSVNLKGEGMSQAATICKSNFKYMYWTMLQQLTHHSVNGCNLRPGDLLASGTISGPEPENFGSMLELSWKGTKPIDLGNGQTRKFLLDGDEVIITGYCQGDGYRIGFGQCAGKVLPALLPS
Summary of the method: as §1

SMILES: O=C(Oc1ccc([N+](=O)[O-])cc1[N+](=O)[O-])C(c1ccccc1)(c1ccccc1)c1ccccc1 [fragment 42, 2,4-Dinitrophenyl 2,2,2-triphenylacetate]
isoTOP-ABPP ratio (R) at liganded lysine Q9NVS9_K100 [1]: 0.9
isoTOP-ABPP ratio (R) at liganded lysine O75323_K75 [2]: 0.9
isoTOP-ABPP ratio (R) at liganded lysine P16930_K241 (FAH Fumarylacetoacetase): 0.9

SMILES: CC(C)(C)OC(=O)NCCCC(=O)Oc1ccc([N+](=O)[O-])cc1[N+](=O)[O-] [fragment 41, 2,4-Dinitrophenyl 4-((tert-butoxycarbonyl)amino)butanoate]
isoTOP-ABPP ratio (R) at liganded lysine Q9NVS9_K100 [1]: 1.0
isoTOP-ABPP ratio (R) at liganded lysine O75323_K75 [2]: 1.8
isoTOP-ABPP ratio (R) at liganded lysine P16930_K241 (FAH Fumarylacetoacetase): 1.4

SMILES: O=C(Oc1ccc([N+](=O)[O-])cc1[N+](=O)[O-])C1CCN(C(=O)OCc2ccccc2)CC1 [fragment 34, 1-Benzyl 4-(2,4-dinitrophenyl) piperidine-1,4-dicarboxylate]
isoTOP-ABPP ratio (R) at liganded lysine Q9NVS9_K100 [1]: 0.9
isoTOP-ABPP ratio (R) at liganded lysine P16930_K241 (FAH Fumarylacetoacetase): 1.2

SMILES: O=C(CCc1cn(-c2ccccc2)nc1-c1ccccc1)Oc1ccc([N+](=O)[O-])cc1[N+](=O)[O-] [fragment 29, 2,4-Dinitrophenyl 3-(1,3-diphenyl-1H-pyrazol-4-yl)propanoate]
isoTOP-ABPP reactivity ratio at lysine Q9NVS9_K100 [1]: 1.9
isoTOP-ABPP reactivity ratio at lysine O75323_K75 [2]: 1.0
isoTOP-ABPP reactivity ratio at lysine P16930_K241 (FAH Fumarylacetoacetase): 1.7

SMILES: NC(=O)c1cc(C(F)(F)F)cc(C(F)(F)F)c1 [fragment 51, reference compound]
isoTOP-ABPP ratio, lysine Q9NVS9_K100 [1]: 0.9
isoTOP-ABPP ratio, lysine O75323_K75 [2]: 0.9
isoTOP-ABPP ratio, lysine P16930_K241 (FAH Fumarylacetoacetase): 0.9

SMILES: Cn1cc(CC(=O)Oc2ccc([N+](=O)[O-])cc2[N+](=O)[O-])c2ccccc21 [fragment 32, 2,4-Dinitrophenyl 2-(1-methyl-1H-indol-3-yl)acetate]
isoTOP-ABPP reactivity ratio at lysine Q9NVS9_K100 [1]: 3.6
isoTOP-ABPP reactivity ratio at lysine P16930_K241 (FAH Fumarylacetoacetase): 2.2

Now from value to compound:

isoTOP-ABPP ratio, lysine Q9NVS9_K100 [1]: 0.9
isoTOP-ABPP ratio, lysine O75323_K75 [2]: 0.9
isoTOP-ABPP ratio, lysine P16930_K241 (FAH Fumarylacetoacetase): 2.3
SMILES: O=C(Oc1c(F)c(F)cc(F)c1F)c1cc(C(F)(F)F)cc(C(F)(F)F)c1 [fragment 48, 2,3,5,6-Tetrafluorophenyl 3,5-bis(trifluoromethyl)benzoate]

blockade of probe 1 labeling of K100 ([1]; PNPO K100): fully blocking probe 1 labeling
R value (DMSO/fragment) for probe 1 labeling [1]: 20.0
R value (DMSO/fragment) for probe 1 labeling [2]: 1.0
R value (DMSO/fragment) for probe 1 labeling (FAH Fumarylacetoacetase): 2.5
SMILES: O=C(CCc1cn(-c2ccccc2)nc1-c1ccccc1)Oc1c(F)c(F)c(F)c(F)c1F [fragment 19, Pentafluorophenyl 3-(1,3-diphenyl-1H-pyrazol-4-yl)propanoate]

R value (DMSO/fragment) for probe 1 labeling [1]: 0.9
R value (DMSO/fragment) for probe 1 labeling [2]: 0.8
R value (DMSO/fragment) for probe 1 labeling (FAH Fumarylacetoacetase): 2.0
SMILES: O=C(Oc1c(F)c(F)c(F)c(F)c1F)c1cc(C(F)(F)F)cc(C(F)(F)F)c1 [fragment 21, Pentafluorophenyl 3,5-bis(trifluoromethyl)benzoate]

isoTOP-ABPP ratio, lysine Q9NVS9_K100 [1]: 0.9
isoTOP-ABPP ratio, lysine O75323_K75 [2]: 1.0
isoTOP-ABPP ratio, lysine P16930_K241 (FAH Fumarylacetoacetase): 1.2
SMILES: O=C(Oc1c(F)c(F)c(C(F)(F)F)c(F)c1F)c1cc(C(F)(F)F)cc(C(F)(F)F)c1 [fragment 47, 2,3,5,6-Tetrafluoro-4-(trifluoromethyl)phenyl 3,5-bis(trifluoromethyl)benzoate]

isoTOP-ABPP reactivity ratio at lysine Q9NVS9_K100 [1]: 1.4
isoTOP-ABPP reactivity ratio at lysine O75323_K75 [2]: 4.2
isoTOP-ABPP reactivity ratio at lysine P16930_K241 (FAH Fumarylacetoacetase): 5.0
SMILES: O=C(CCc1coc2cc(F)ccc2c1=O)Oc1c(F)c(F)c(F)c(F)c1F [fragment 26, Pentafluorophenyl 3-(7-fluoro-4-oxo-4H-chromen-3-yl)propanoate]

isoTOP-ABPP reactivity ratio at lysine Q9NVS9_K100 [1]: 1.0
isoTOP-ABPP reactivity ratio at lysine O75323_K75 [2]: 20.0
isoTOP-ABPP reactivity ratio at lysine P16930_K241 (FAH Fumarylacetoacetase): 1.8
SMILES: O=C(CN1C(=O)c2ccccc2C1=O)Oc1c(F)c(F)c(F)c(F)c1F [fragment 27, Pentafluorophenyl 2-(1,3-dioxoisoindolin-2-yl)acetate]
